How the values were obtained:
[1] = Uric acid-lowering test in monkeys having hyperuricemia (UA subcutaneous injection); format: in vivo, cynomolgus monkeys; settings: cynomolgus monkey, serum, sc; uric acid (UA) by subcutaneous injection at the nape, cynomolgus monkeys from the model group; read-out: half-life (t½z) (converted)
Procedure: The experiment was conducted by reference to Komoriya K, Osada Y, Hasegawa M, Horiuchi H, Kondo S, Couch R C, Griffin T B. Hypouricemic effect of allopurinol and the novel xanthine oxidase inhibitor TEI-6720 in chimpanzees. Eur J Pharmacol. 1993 Dec. 21; 250(3): 455-60.
In the Model group, three non-naïve cynomolgus monkeys (1 #, 2 # and 3 #) were administered with UA by subcutaneous injection at the nape. Blood was collected from the vein before UA administration and 0.5 h, 1 h, 2 h, 4 h, 6 h and 24 h after UA administration. The blood was left still at room temperature. The serum was collected by centrifugation. The content of serum uric acid was measured.
In the Administration group, three non-naïve cynomolgus monkeys (1 #, 2 # and 3 #) were administered with the test sample by intravenous injection after 2 weeks of clearance. Blood was collected from the vein before administration and 2 h after administration of test sample. Then, the monkeys were administered with UA by subcutaneous injection at the nape and blood was collected from the vein 1 h, 2 h and 4 h after the UA administration. The blood was left still at room temperature. The serum was collected by centrifugation. The content of serum uric acid was measured. Reduction rate of serum uric acid in healthy monkeys administered with test sample=(average uric acid content before administration−average uric acid content 2 h after administration of test sample)/average uric acid content before administration*100%, Reduction rate of serum uric acid in monkeys having hyperuricemia after administration of test sample=(uric acid content after UA administration in the model group−uric acid content after UA administration in the administration group)/uric acid content in the model group*(100%).
That was, the samples were collected before administration, 2 h after administration of test sample and 1 h, 2 h and 4 h after UA administration for determination of the serum uric acid content. The contents of serum uric acid in the model group and the administration group and the reduction rates of serum uric acid were shown in the following Tables 3-1, 3-2 and 3-3, respectively.

[2] = Pharmacokinetics experiment in cynomolgus monkeys, intravenous; format: in vivo, cynomolgus monkeys (Macaca fascicularis); settings: 5 mg/kg, Mean ± SD, n = 3
Procedure: Three non-naïve cynomolgus monkeys were administered with test compounds A, B and D at a dose of 5 mg/kg by intravenous injection and with test compound C at a dose of 3 mg/kg by intravenous injection, with one compound being tested at a time. Blood was collected from the vein before administration and 1 h, 3 h, 6 h and 24 h after administration, and plasma was isolated. The plasma was analyzed by a 4000 Q Trap LC-MS/MS instrument. The concentrations of the test samples were output by Analyst 1.6.1 from AB Company. The parameters ( ) such as the mean, standard deviation, and coefficient of variation were calculated using Microsoft Excel, wherein the values directly output by Analyst 1.6.1 requires no calculation. PK parameters were calculated using Pharsight Phoenix 6.2 software (NCA model).

serum uric acid = assay: Uric acid-lowering experiment in cynomolgus monkeys; format: in vivo; set-up: Reduction rate of serum uric acid: concentration or dose not given beside the values; settings: for Reduction rate of serum uric acid / Content of serum uric acid: intravenous; for Reduction rate of serum uric acid: 3 h after administration vs before administration; for Content of serum uric acid: 3 h after administration
Procedure: The experiment was done by reference to Komoriya K, Osada Y, Hasegawa M, Horiuchi H, Kondo S, Couch R C, Griffin T B. Hypouricemic effect of allopurinol and the novel xanthine oxidase inhibitor TEI-6720 in chimpanzees. Eur J Pharmacol. 1993 Dec. 21; 250(3): 455-60.
Each compound was tested in three non-naïve cynomolgus monkeys (1 #, 2 # and 3 #), wherein the monkeys were administered with test samples by intravenous injection. Blood was collected from the vein before administration and 1 h, 3 h, 6 h and 24 h after administration. The blood was left still at room temperature. The serum was collected by centrifugation. The content of uric acid in serum was measured. Reduction rate of serum uric acid=(average uric acid content before administration−average uric acid content after administration)/average uric acid content before administration*100%.

[3] = test system: MSU-induced gouty arthritis; assay: MSU-induced gouty arthritis, toe volume; format: in vivo, Male Wistar rats; settings: for Inhibition of toe volume change (%): vs model group; for effect on increase of the toe volumes in the test rats (in words): compared with the model group
Procedure: The experiment was done by reference to Hsin-Pai Lee, Shi-Ying Huang, Yen-You Lin. Soft Coral-Derived Lemnalol Alleviates Monosodium Urate-Induced Gouty Arthritis in Rats by Inhibiting Leukocyte Infiltration and iNOS, COX-2 and c-Fos Protein Expression. […] 2013, 11, 99-113.
One gram of uric acid was weighed, introduced into 200 mL of boiling water and heated. Then, NaOH (2 mol/L) was added until pH reached 9. The solution became clear, and was cooled at room temperature and then left still overnight. MSU was obtained after filtration, which was dried at 60° C. for 24 h and then sterilized at a high temperature of 180° C.
(§1) The toe volumes of the rats were measured one day prior to the experiment. The rats were administered with the solvent by subcutaneous injection in the model group at a dose of 5 mL/kg, while the rats were administered with test samples by subcutaneous injection in administration groups at a dose of 5 mg/kg. Rats were anesthetized immediately after administration and were injected with 0.09 mL of MSU suspension into the joint cavity of the left ankle. The volume of the left toe was measured in rats 9 h after the injection of MSU into the ankle joint cavity.
as §1, with “dose of 15 mL/kg, while” for “dose of 5 mL/kg, while”, “dose of 15 mg/kg or 10 mg/kg. Rats” for “dose of 5 mg/kg. Rats”
The toe volumes of rats were measured one day prior to the experiment. The rats were administered with the solvent by subcutaneous injection in the model group at a dose of 15 mL/kg, while the rats were administered with the test sample by subcutaneous injection in administration group at a dose of 15 mg/kg. Rats were anesthetized immediately after administration and were injected with 0.09 mL of MSU suspension into the joint cavity of the left ankle. The volume of the left toe in each rat was measured 9 h after the injection of MSU into the ankle joint cavity.

[4] = test system: MSU-induced gouty arthritis; assay: Pain value in rats with gouty arthritis (electronic Von Frey pain threshold detector); format: in vivo, Male Wistar rats
Procedure: The rats with gouty arthritis were placed in a metabolic cage, and the palm center of the left foot of each rat was irritated with an electronic Von Frey pain threshold detector. The maximum stress value was recorded when each rat withdrew its foot, and the value was the pain value of that rat.

[5] = molecular target: T1, human urate transporter 1 (hURAT1) (Homo sapiens, UniProt Q96S37); assay: Uptake of 14C-labeled uric acid in hURAT1 transfected cells; format: cell-based; settings: 14C uric acid uptake, hURAT1-transfected HEK-293T cells, 5 min at 37° C.; read-out: IC50 (μM), inhibition of hURAT1 activity
T1 construct: expressed in transfected cells; host or cells: HEK-293T
T1 sequence (Q96S37 1-553): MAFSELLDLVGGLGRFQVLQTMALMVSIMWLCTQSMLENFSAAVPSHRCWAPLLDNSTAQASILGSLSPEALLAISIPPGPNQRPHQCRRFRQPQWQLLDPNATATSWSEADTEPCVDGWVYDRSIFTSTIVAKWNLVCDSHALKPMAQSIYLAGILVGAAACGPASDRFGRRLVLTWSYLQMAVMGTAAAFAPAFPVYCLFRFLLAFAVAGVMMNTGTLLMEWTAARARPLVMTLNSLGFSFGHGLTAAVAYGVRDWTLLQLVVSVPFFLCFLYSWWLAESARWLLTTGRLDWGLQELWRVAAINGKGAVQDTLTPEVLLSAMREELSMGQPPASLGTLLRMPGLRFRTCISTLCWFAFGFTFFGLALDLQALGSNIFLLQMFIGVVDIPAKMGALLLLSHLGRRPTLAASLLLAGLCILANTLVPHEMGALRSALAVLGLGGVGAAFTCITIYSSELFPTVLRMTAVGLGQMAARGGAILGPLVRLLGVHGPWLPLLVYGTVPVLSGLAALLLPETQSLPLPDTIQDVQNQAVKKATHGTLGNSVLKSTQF

[6] = Example 6, 15 mg/kg subcutaneous, 9 h after MSU

half-life [1] | SMILES | t1/2z [2] | effect on serum uric acid levels in the test monkeys (in words) (serum uric acid; compared to the levels measured before administration) | Reduction rate of serum uric acid (serum uric acid; animal 1#) | Reduction rate of serum uric acid (serum uric acid; animal 2#) | Reduction rate of serum uric acid (serum uric acid; mean) | Content of serum uric acid (serum uric acid; animal 1#) | Content of serum uric acid (serum uric acid; animal 2#) | Content of serum uric acid (serum uric acid; mean) | Change of toe volume ([3]; Example 4, 5 mg/kg subcutaneous, 9 h after MSU injection into left ankle joint cavity) | Inhibition of toe volume change (%) ([3]; Example 4, 5 mg/kg subcutaneous, 9 h after MSU) | effect on increase of the toe volumes in the test rats (in words) ([3]; Example 4, 5 mg/kg) | Toe volume change [3, 6] | Inhibition of toe volume change (%) [3, 6] | effect on increase of the toe volumes in the test rats (in words) ([3]; Example 6, 15 mg/kg) | Pain value ([4]; Example 6, 15 mg/kg subcutaneous, left foot, Von Frey) | effect on pain in the test rats (in words) ([4]; Example 6, compared with the model group) | IC50 [5]
32.4 min | O=c1[nH]c(=O)c2[nH]c(=O)[nH]c2[nH]1 [uric acid (UA), uric acid] |  |  |  |  |  |  |  |  |  |  |  |  |  |  |  |  | 
 | CCCCn1c(=O)[nH]c(=O)c2[nH]c(Cl)nc21 [Compound B, 8-chloro-3-butyl-3,7-dihydro-1H-purine-2,6-dione] | 163 ± 21 min | significantly reduce | 17.5% | 9.2% | 14.1% | 69.1 µmol/L | 52.3 µmol/L | 60.7 µmol/L | 0.349 mL | 30.8% | significantly inhibit | 0.229 mL | 49.1% | significantly inhibit | 37.2 g | significantly reduce | 3.02 µM

From patent US10322132B2, “Prevention or treatment of uratic or gouty diseases” (SHANTON PHARMA CO., LTD., priority 2015, dated 2019)
